Laboratory results reported in patent US20260285853A1, “COMPOUNDS AND METHODS FOR MODULATING SPLICING” (REMIX THERAPEUTICS INC., priority 2023, published 2026).
Like-named read-outs stand apart in the source and are kept apart here.

Key:
Assay type in all cases: cell-based
MYB mRNA [1] = experiment: Gene panel canonical junction qPCR assay, decrease in CJ mRNA, Table 3
Outline: (§1)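 Cells: A673 or K562; 24 h compound exposure, 37 °C, 5% CO2; 11-pt 3-fold series from 10 uM final; DMSO ≤0.25%. Lysate → cDNA → qPCR with junction-spanning primers/probe for CJ transcript. ΔCt vs housekeeper, ΔΔCt vs DMSO, 2^(−ΔΔCt), % response, 4PL → IC50.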

HTT mRNA [2] = experiment: as above
Outline: as §1

MYB mRNA [3] = experiment: Splicing RT-qPCR assay (THP), Table 2A
HTT mRNA [4] = experiment: Splicing RT-qPCR assay (THP), Table 2A
[5] = test system: SH-SY5Y (human neuroblastoma) cells; experiment: Cell viability, Cell Titer Glo 2.0 assay; conditions: read-out: Viability SHSY5Y.3 GI50
Outline: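 CellTiter-Glo 2.0 luminescence read-out after 72 h compound exposure (37 °C, 5% CO2); medium-only wells as blank. DMSO 0.1% final.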

[6] = decrease in canonical junction (CJ) mRNA, gene panel qPCR, Table 3
[7] = Table 2A (THP), AJ mRNA increase, read-out: MYB AJ (increase in alternative junction mRNA, AC50)
[8] = Table 2A (THP), CJ mRNA decrease, read-out: MYB CJ (decrease in canonical junction mRNA, IC50)
[9] = Table 2A (THP), AJ mRNA increase, read-out: HTT AJ (increase in alternative junction mRNA, AC50)
[10] = Table 2A (THP), CJ mRNA decrease, read-out: HTT CJ (decrease in canonical junction mRNA, IC50)
[11] = decrease in CJ mRNA levels, canonical junction qPCR, gene panel
[12] = Table 2A, THP, MYB alternative junction (AJ) mRNA, read-out: MYB AJ (AC50, increase in alternative junction mRNA)
[13] = Table 2A, THP, MYB canonical junction (CJ) mRNA, read-out: MYB CJ (IC50, decrease in canonical junction mRNA)
[14] = Table 2A, THP, HTT alternative junction (AJ) mRNA, read-out: HTT AJ (AC50, increase in alternative junction mRNA)
[15] = Table 2A, THP, HTT canonical junction (CJ) mRNA, read-out: HTT CJ (IC50, decrease in canonical junction mRNA)

SMILES | IC50 (MYB mRNA [1]; [6]) [µM] | IC50 (HTT mRNA [2]; [6]) [µM] | IC50 (MYB mRNA [3]; [8]) [µM] | IC50 (HTT mRNA [4]; [10]) [µM] | GI50 [5] [µM] | IC50 (MYB mRNA [1]; [11]) [µM] | IC50 (HTT mRNA [2]; [11]) [µM] | IC50 (MYB mRNA [3]; [13]) [µM] | IC50 (HTT mRNA [4]; [15]) [µM] | AC50 (MYB mRNA [3]; [7]) [µM] | AC50 (HTT mRNA [4]; [9]) [µM] | AC50 (MYB mRNA [3]; [12]) [µM] | AC50 (HTT mRNA [4]; [14]) [µM]
Cc1cn2cc(NC(=O)c3ncc(N4CCC(NC5CC5)CC4)c4cn(C)nc34)cc(F)c2n1 [Compound 361, 4-[4-(cyclopropylamino)-1-piperidyl]-N-(8-fluoro-2-methyl-imidazo[1,2-a]pyridin-6-yl)-2-methyl-pyrazolo[3,4-c]pyridine-7-carboxamide] | 0.1 to 1 | > 10 | 0.1 to 1 | > 10 | 1 to 10 |  |  |  |  | 0.1 to 1 | 1 to 10 |  | 
CNc1nc2c(C(=O)Nc3cc(F)c4nn(C)cc4c3)ccc(N3C[C@H](C)N[C@@H](C)C3)c2s1 [Compound 699, 7-[(3S,5S)-3,5-dimethylpiperazin-1-yl]-N-(7-fluoro-2-methyl-indazol-5-yl)-2-(methylamino)-1,3-benzothiazole-4-carboxamide] |  |  |  |  | < 0.1 | < 0.1 | 0.1 to 1 | < 0.1 | 0.1 to 1 |  |  | < 0.1 | 0.1 to 1
CC(=O)NCc1cn2cc(NC(=O)c3c(F)cc(N4CCC(NC5CC5)CC4)c4cn(C)nc34)nc2c(C)n1 [Compound 424, N-[6-(acetamidomethyl)-8-methyl-imidazo [1,2-a]pyrazin-2-yl]-4-[4-(cyclopropylamino)-1-piperidyl]-6-fluoro-2-methyl-indazole-7-carboxamide] | > 10 | > 10 | > 10 | > 10 | > 10 |  |  |  |  | > 10 | > 10 |  | 
CCNC1CCN(c2ccc(C(=O)Nc3cc(OCc4ccccc4)c4nc(C)cn4c3)c3nn(C)cc23)CC1 [Compound 324, N-(8-benzyloxy-2-methylimidazo[1,2-a]pyridin-6-yl)-4-[4-(ethylamino)-1-piperidyl]-2-methyl-indazole-7-carboxamide] | 1 to 10 | > 10 | 1 to 10 | > 10 | 1 to 10 |  |  |  |  | 0.1 to 1 | > 10 |  | 
COc1cc2nn(C)cc2cc1NC(=O)c1c(F)cc(N2CCC(NC3CC3)CC2)c2nc(C)sc12 [Compound 661, 4-[4-(cyclopropyl-amino)-1-piperidyl]-6-fluoro-N-(6-methoxy-2-methyl-indazol-5-yl)-2-methyl-1,3-benzothiazole-7-carboxamide] |  |  |  |  | 1 to 10 | 1 to 10 | 1 to 10 | 1 to 10 | 1 to 10 |  |  | 1 to 10 | 1 to 10
Cc1cn2cc(NC(=O)c3ccc(N4CCC(NC5CC5)CC4)c4cn(C)nc34)c(F)c2c(C)n1 [Compound 478, 4-[4-(cyclopropyl-amino)-1-piperidyl]-N-(8-fluoro-1,3-dimethyl-pyrrolo[1,2-a]-pyrazin-7-yl)-2-methyl-indazole-7-carboxamide] | > 10 | > 10 | > 10 | > 10 | 1 to 10 |  |  |  |  | > 10 | > 10 |  | 
CCNC1CCN(c2ccc(C(=O)Nc3cn4cc(C)nc(CC(=O)NC)c4n3)c3nn(C)cc23)CC1 [Compound 872, 4-[4-(ethylamino)-1-piperidyl]-2-methyl-N-[6-methyl-8-[2-(methylamino)-2-oxo-ethyl]imidazo[1,2-a]pyrazin-2-yl]indazole-7-carboxamide] |  |  |  |  | > 10 | > 10 | > 10 | > 10 | > 10 |  |  | > 10 | > 10
CNC1CCC(Oc2ccc(C(=O)Nc3cn4cc(C)nc(C)c4n3)c3nn(C)cc23)CC1 (centres unmarked) [Compound 592] | 1 to 10 | 1 to 10 | 1 to 10 | 1 to 10 | 1 to 10 |  |  |  |  | 1 to 10 | 1 to 10 |  | 
CCNC1CCN(c2cc(F)c(C(=O)Nc3cn4cc(C)nc(C#N)c4n3)c3nn(C)cc23)CC1 [Compound 390, N-(8-cyano-6-methyl-imidazo[1,2-a]pyrazin-2-yl)-4-[4-(ethylamino)-1-piperidyl]-6-fluoro-2-methyl-indazole-7-carboxamide] | 0.1 to 1 | > 10 | 0.1 to 1 | > 10 | 1 to 10 |  |  |  |  | < 0.1 | > 10 |  | 

Further lines, with some results ahead:

IC50 (MYB mRNA [1]; [6]) [µM] | IC50 (HTT mRNA [2]; [6]) [µM] | IC50 (MYB mRNA [3]; [8]) [µM] | IC50 (HTT mRNA [4]; [10]) [µM] | GI50 [5] [µM] | IC50 (MYB mRNA [1]; [11]) [µM] | IC50 (HTT mRNA [2]; [11]) [µM] | IC50 (MYB mRNA [3]; [13]) [µM] | IC50 (HTT mRNA [4]; [15]) [µM] | SMILES | AC50 (MYB mRNA [3]; [7]) [µM] | AC50 (HTT mRNA [4]; [9]) [µM] | AC50 (MYB mRNA [3]; [12]) [µM] | AC50 (HTT mRNA [4]; [14]) [µM]
> 10 | > 10 | > 10 | > 10 | > 10 |  |  |  |  | COc1ccncc1NC(=O)c1c(F)cc(N2CCC(NC3CC3)CC2)c2cn(C)nc12 [Compound 414, 4-[4-(cyclopropylamino)-1-piperidyl]-6-fluoro-N-(4-methoxy-3-pyridyl)-2-methyl-indazole-7-carboxamide] | > 10 | > 10 |  | 
 |  |  |  | 1 to 10 | > 10 | 1 to 10 | > 10 | 1 to 10 | COc1nc2c(C(=O)Nc3ccc4nn(C)cc4c3OC)ccc(N3C[C@H](C)N[C@@H](C)C3)c2s1 [Compound 729, 7-[(3S,5S)-3,5-dimethylpiperazin-1-yl]-2-methoxy-N-(4-methoxy-2-methyl-indazol-5-yl)-1,3-benzothiazole-4-carboxamide] |  |  | > 10 | > 10
 |  |  |  | > 10 | > 10 | 1 to 10 | > 10 | 1 to 10 | CCNC1CCN(c2ccc(C(=O)Nc3cn4cc(C)nc(C)c4n3)c3nc(OC)sc23)CC1 [Compound 670, N-(6,8-dimethyl-imidazo[1,2-a]-pyrazin-2-yl)-7-[4-(ethylamino)-1-piperidyl]-2-methoxy-1,3-benzothiazole-4-carboxamide] |  |  | > 10 | > 10
 |  |  |  | > 10 | 1 to 10 | > 10 | 1 to 10 | > 10 | Cc1cn2cc(NC(=O)c3ccc(N4CCC(NC5CC5)CC4)c4cn(C)nc34)nc2c(CCS(C)(=O)=O)n1 [Compound 702] |  |  | 1 to 10 | > 10
 |  |  |  | 1 to 10 | 1 to 10 | 1 to 10 | 1 to 10 | 1 to 10 | Cc1cn2cc(NC(=O)c3ccc(N4CCNCC4)c4c3OCO4)cc(F)c2n1 [Compound 642, N-(8-fluoro-2-methyl-imidazo[1,2-a]pyridin-6-yl)-7-piperazin-1-yl-1,3-benzodioxole-4-carboxamide] |  |  | 1 to 10 | 1 to 10
 |  |  |  | > 10 | > 10 | > 10 | > 10 | > 10 | CCNC1CCN(c2ccc(C(=O)Nc3cc(CCC(N)=O)c4nn(C)cc4c3)c3nn(C)cc23)CC1 [Compound 875] |  |  | > 10 | > 10
 |  |  |  | 0.1 to 1 | < 0.1 | > 10 | < 0.1 | > 10 | COc1nc2c(C(=O)Nc3cc(CO)c4nn(C)cc4c3)ccc(N3C[C@H](C)N[C@@H](C)C3)c2s1 [Compound 783, 7-((3S,5S)-3,5-dimethylpiperazin-1-yl)-N-(7-(hydroxymethyl)-2-methyl-2H-indazol-5-yl)-2-methoxybenzo[d]thiazole-4-carboxamide] |  |  | < 0.1 | 1 to 10
< 0.1 | > 10 | < 0.1 | > 10 | 1 to 10 |  |  |  |  | CCNC1CCN(c2cc(F)c(C(=O)Nc3cn4cc(CF)nc(C)c4n3)c3nn(C)cc23)CC1 [Compound 383, 4-(4-(ethylamino)piperidin-1-yl)-6-fluoro-N-(6-(fluoromethyl)-8-methylimidazo[1,2-a]-pyrazin-2-yl)-2-methyl-2H-indazole-7-carboxamide 2,2,2-trifluoroacetate] | < 0.1 | 0.1 to 1 |  | 
1 to 10 | 1 to 10 | 1 to 10 | 1 to 10 | 1 to 10 |  |  |  |  | Cc1cn2cc(NC(=O)c3ccc(N4CCC(NC5CC5)CC4)c4cn(C)nc34)cc(Oc3ccnnc3)c2n1 [Compound 322, 4-[4-(cyclopropyl-amino)-1-piperidyl]-2-methyl-N-(2-methyl-8-pyridazin-4-yloxy-imidazo[1,2-a]-pyridin-6-yl)-indazole-7-carboxamide] | 1 to 10 | 1 to 10 |  | 
> 10 | > 10 | > 10 | > 10 | > 10 |  |  |  |  | Cc1cn2cc(NC(=O)c3ccc(N4CC(N5CCNCC5)C4)c4cn(C)nc34)nc2c(C)n1 [Compound 500] | > 10 | > 10 |  | 
 |  |  |  | 1 to 10 | 1 to 10 | 1 to 10 | 1 to 10 | 1 to 10 | Cn1cc2cc(NC(=O)c3ccc(N4CCC(NC5CC5)CC4)c4cn(C)nc34)cc(CNc3nccs3)c2n1 [Compound 881] |  |  | 0.1 to 1 | > 10
